# Test system: circulating levels of luteinizing hormone (LH)
# Experiment: Castrated male rat model, circulating levels of luteinizing hormone (LH)
# Assay type: in vivo
# Conditions: castrated male SD rats, single intravenous dose (156 and 144: 10 mg/kg; 71: 15 mg/kg; 114: 20 mg/kg), 60 min post dosing (156 also 120 min), vs. baseline
row,Compound,effect on LH serum levels
1,"C[C@@H]1c2nnc(-c3csc(-c4ccc(F)cc4)n3)n2CCN1C(=O)c1ccc(F)cc1 [Compound 71, (R)-(4-fluorophenyl)(3-(2-(4-fluorophenyl)thiazol-4-yl)-8-methyl-5,6-dihydro-[1,2,4]triazolo[4,3-a]pyrazin-7(8H)-yl)methanone]",significantly suppressed GnRH-mediated elevation of LH

# Biological target: human NK-3 receptor (Homo sapiens (Human), UniProt P29371)
# Experiment: 3H-SB222200 binding competition assay with human NK-3 receptor
# Conditions: 3H-SB222200 displacement, CHO cell membranes expressing human NK3 receptor; read-out: Ki range
# Method in brief: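 Membranes from CHO cells expressing human NK3 receptor incubated with 5 nM 3H-SB222200 and test compound in HEPES 25 mM/NaCl 0.1M/CaCl2 1 mM/MgCl2 5 mM/BSA 0.5%/saponin 10 μg/ml, pH 7.4. Bound radioligand counted after filtration; Ki calculated, reported in bands (+++ <500 nM to # >5 μM).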
# human NK-3 receptor, sequence (P29371 whole entry): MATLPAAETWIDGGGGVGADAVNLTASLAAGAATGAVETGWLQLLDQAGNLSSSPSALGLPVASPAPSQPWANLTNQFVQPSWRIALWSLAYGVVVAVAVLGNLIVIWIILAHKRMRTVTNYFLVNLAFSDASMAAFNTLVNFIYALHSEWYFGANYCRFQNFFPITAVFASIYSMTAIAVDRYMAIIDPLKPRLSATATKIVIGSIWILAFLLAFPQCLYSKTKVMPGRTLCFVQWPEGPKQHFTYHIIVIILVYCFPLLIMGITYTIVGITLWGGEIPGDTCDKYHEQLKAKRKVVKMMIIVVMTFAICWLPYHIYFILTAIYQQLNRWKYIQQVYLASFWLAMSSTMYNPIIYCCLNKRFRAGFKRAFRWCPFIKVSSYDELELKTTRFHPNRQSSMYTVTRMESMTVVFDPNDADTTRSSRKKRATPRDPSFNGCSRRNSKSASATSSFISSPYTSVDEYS
row,Compound,Ki [nM]
1,"C[C@@H]1c2nnc(-c3csc(-c4ccc(F)cc4)n3)n2CCN1C(=O)c1ccc(F)cc1 [Compound 71, (R)-(4-fluorophenyl)(3-(2-(4-fluorophenyl)thiazol-4-yl)-8-methyl-5,6-dihydro-[1,2,4]triazolo[4,3-a]pyrazin-7(8H)-yl)methanone]",< 500
2,"Cn1nc(-c2ccccc2)cc1-c1nnc2n1CCN(C(=O)c1ccc(-c3cccs3)cc1)C2 [Compound 220, (3-(1-methyl-3-phenyl-1H-pyrazol-5-yl)-5,6-dihydro-[1,2,4]triazolo[4,3-a]pyrazin-7(8H)-yl)(4-(thiophen-2-yl)phenyl)methanone]",< 500
3,"O=C(c1ccc(-c2cccs2)cc1)N1CCn2c(nnc2-c2cc(-c3ccccc3)nn2CCO)C1 [Compound 284, (3-(1-(2-hydroxyethyl)-3-phenyl-1H-pyrazol-5-yl)-5,6-dihydro-[1,2,4]triazolo[4,3-a]pyrazin-7(8H)-yl)(4-(thiophen-2-yl)phenyl)methanone]",< 500
4,"O=C(c1ccc(F)cc1)N1CCn2c(nnc2-c2csc(Cc3ccc(Cl)cc3)n2)C1 [Compound 188, (3-(2-(4-chlorobenzyl)thiazol-4-yl)-5,6-dihydro-[1,2,4]triazolo[4,3-a]pyrazin-7(8H)-yl)(4-fluorophenyl)methanone]",500 to 1000
5,"O=C(c1ccc(-c2cccs2)cc1)N1CCn2c(nnc2-c2csc(-c3ccc4ccccc4n3)n2)C1 [Compound 219, (3-(2-(quinolin-2-yl)thiazol-4-yl)-5,6-dihydro-[1,2,4]triazolo[4,3-a]pyrazin-7(8H)-yl)(4-(thiophen-2-yl)phenyl)methanone]",< 500
6,"O=C(c1ccc(F)cc1)N1CCn2c(nnc2-c2csc(-c3ccccc3F)n2)C1 [Compound 180, (4-fluorophenyl)(3-(2-(2-fluorophenyl)thiazol-4-yl)-5,6-dihydro-[1,2,4]triazolo[4,3-a]pyrazin-7(8H)-yl)methanone]",< 500
7,"CC(C)Cc1nc(-c2nnc3n2CCN(C(=O)c2ccc(-c4cccs4)cc2)C3)cs1 [Compound 256, (3-(2-isobutylthiazol-4-yl)-5,6-dihydro-[1,2,4]triazolo[4,3-a]pyrazin-7(8H)-yl)(4-(thiophen-2-yl)phenyl)methanone]",< 500
8,"O=C(c1ccc(F)cc1)N1CCn2c(nnc2-c2csc(-c3ccccn3)n2)C1 [Compound 230, (4-fluorophenyl)(3-(2-(pyridin-2-yl)thiazol-4-yl)-5,6-dihydro-[1,2,4]triazolo[4,3-a]pyrazin-7(8H)-yl)methanone]",1000 to 5000
9,"CC(C)(C)OC(=O)NCCOc1ccccc1-c1nc(-c2nnc3n2CCN(C(=O)c2ccc(-c4cccs4)cc2)C3)cs1 [Compound 280, tert-butyl(2-(2-(4-(7-(4-(thiophen-2-yl)benzoyl)-5,6,7,8-tetrahydro-[1,2,4]triazolo[4,3-a]pyrazin-3-yl)thiazol-2-yl)phenoxy)ethyl)carbamate]",< 500
10,"C[C@H]1c2nnc(-c3csc(N4CCOCC4)n3)n2CCN1C(=O)c1ccc(-c2ccc(F)cc2)cc1 [Compound 161, (S)-(4′-fluoro-[1,1′-biphenyl]-4-yl)(8-methyl-3-(2-morpholinothiazol-4-yl)-5,6-dihydro-[1,2,4]triazolo[4,3-a]pyrazin-7(8H)-yl)methanone]",1000 to 5000
11,"C[C@@H]1c2nnc(-c3ccccn3)n2CCN1C(=O)c1ccc(F)cc1 [Compound 44, (R)-(4-fluorophenyl)(8-methyl-3-(pyridin-2-yl)-5,6-dihydro-[1,2,4]triazolo[4,3-a]pyrazin-7(8H)-yl)methanone]",1000 to 5000
12,"O=C(c1ccc(-c2cccs2)cc1)N1CCn2c(nnc2-c2ccc3ccccc3n2)C1 [Compound 69, (3-(quinolin-2-yl)-5,6-dihydro-[1,2,4]triazolo[4,3-a]pyrazin-7(8H)-yl)(4-(thiophen-2-yl)phenyl)methanone]",< 500

# From US10544150B2, “NK-3 receptor selective antagonist compounds, pharmaceutical composition and methods for use in NK-3 receptors mediated disorders” (Ogeda SA, priority 2010, dated 2020)
